# Reference: patent publication US20260124213A1, “STAPHYLOCOCCUS AUREUS PBP4 INHIBITORS AND METHOD OF USE” (UNIVERSITY OF ROCHESTER, priority 2022, published 2026)
# Where “and” joins values, the source holds several entries; their conditions need not be identical. Equal values may be shown once.
# What was measured:
# [1] = test system: S. aureus strain CRB; assay: microbe, parasite or virus in culture; format: cell-based, Staphylococcus aureus; conditions: CRB
# Description: Fractional Inhibitory Concentration Index (FICI). Fractional inhibitory testing was performed in checkerboard format to determine whether putative PBP4 inhibitors potentiated the antimicrobial effects of β-lactams toward S. aureus strains USA300 and CRB, as previously described (Chojacnki, et al. Journal of Antimicrobial Chemotherapy, 2003, 52, 1). To do so, in triplicate 10^5 CFU of each strain (10 μL) was added to individual wells of a microtiter plate containing 90 μL MH media. […] Plates were incubated at 37° C. for 16-20 hour and the lowest concentration of each test agent that inhibited bacterial growth alone or in combination was determined by the naked eye. The fractional inhibitory concentration (FIC) index was calculated using the formula: FIC of A (MIC of drug A in combination/MIC of drug A alone)+FIC B ([…]/MIC of drug B alone). A synergistic interaction was defined as a FICI value of less than 0.5, an additive interaction was defined as a FICI value between 0.5 and 1.0, an indifferent interaction was defined as a FICI value between 1.0 and 4.0, and an antagonistic interaction was defined as a FICI value of more than 4.0.
# [2] = test system: pbp4 expression in CRB; assay: Quantitative reverse transcriptase PCR of pbp4 transcript; format: cell-based, Staphylococcus aureus; conditions: 25 μM, 3 hour
# Description: (§1) Quantitative Reverse Transcriptase PCR. PBP4 transcript titers of bacterial cells exposed to putative PBP4 inhibitors were measured using real time quantitative PCR (RT-qPCR), as previously described (Chojnacki, et al. Antibiotics, 2021, 10, 369). Briefly, overnight cultures of S. aureus strains USA300, USA300Δpbp4, CRB, and CRBΔpbp4 were grown overnight in MH media, diluted (1:100 dilution) in fresh media and sub-cultured to a final OD600 nm of 0.2 at 37° C. with aeration. […] Cells were washed with PBS buffer, and collected via centrifugation at 1,250×g for 10 minutes. Total bacterial RNA was isolated from cell pellets using Qiagen® RNeasy kits, following the manufacturer's guidelines for prokaryotic RNA isolation (Qiagen®, Germantown, MD). A total of 2 μg RNA was DNase treated and repurified using RNeasy kits.
# (§2) To measure pbp4 expression, a total of 400 ng of total bacterial RNA was used as a template for qRT-PCR using pbp4 primers (forward, 5′-[…]-3′; reverse, 5′-[…]-3′) and a total of 4 ng of total bacterial RNA was used as a template for primers specific for 16S rRNA (forward, 5′-[…]-3′; reverse, 5′-[…]-3′). Bacterial RNA was amplified and measured using PerfeCTa® SYBR Green FastMix® and qScript® cDNA SuperMix® kits following the manufacturer's recommendations (QuantaBio®, Beverly, MA). […]
# [3] = test system: pbp4 expression in USA300; assay: as above; format: cell-based, Staphylococcus aureus; conditions: 25 μM, 3 hour
# Description: as §1, §2
# [4] = molecular target: recombinant B. subtilis PBP4 (Bacillus subtilis, UniProt P40750); assay: BOCILLIN FL fluorescence polarization binding competition; conditions: compound 50 μM; Ex. 3 series
# recombinant B. subtilis PBP4, sequence (P40750 22-624): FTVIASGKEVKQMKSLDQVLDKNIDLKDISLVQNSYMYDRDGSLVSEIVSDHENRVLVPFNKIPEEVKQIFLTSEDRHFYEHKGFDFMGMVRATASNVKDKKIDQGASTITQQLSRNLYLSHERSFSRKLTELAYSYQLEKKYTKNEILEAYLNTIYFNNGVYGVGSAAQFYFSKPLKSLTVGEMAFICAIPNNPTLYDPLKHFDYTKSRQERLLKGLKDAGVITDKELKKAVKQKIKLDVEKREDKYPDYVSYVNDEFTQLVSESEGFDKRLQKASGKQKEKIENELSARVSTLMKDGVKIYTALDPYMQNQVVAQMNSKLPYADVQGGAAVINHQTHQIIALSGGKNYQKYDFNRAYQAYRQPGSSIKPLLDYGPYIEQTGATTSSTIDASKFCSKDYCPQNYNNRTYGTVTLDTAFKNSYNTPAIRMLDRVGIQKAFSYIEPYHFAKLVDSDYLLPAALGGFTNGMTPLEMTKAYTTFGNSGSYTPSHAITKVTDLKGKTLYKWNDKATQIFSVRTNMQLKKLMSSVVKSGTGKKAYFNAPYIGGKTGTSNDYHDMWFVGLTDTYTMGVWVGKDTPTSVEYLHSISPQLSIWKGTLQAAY
# Description: PBP4 BOCILLIN™ FL Binding Competition Assays. The ability of putative PBP4 inhibitors to impact the active site of recombinant PBP4 was assessed using two previously established BOCILLIN™-FL Penicillin (Penicillin V conjugated to BODIPY fluorescent dye) binding assays. First, fluorescence polarization assays were performed as previously described. Briefly, the indicated amount of the putative PBP4 inhibitor or control antibiotic was incubated with 1 μM recombinant B. subtilis PBP4 or S. aureus PBP2a in potassium phosphate buffer (40 mM K2HPO4 and 10 mM KH2PO4) for 1 hour in black 96-well microtiter plates (Corning Life Sciences®, Corning, NY). Following incubation, 1 μM (final concentration) BOCILLIN™ FL penicillin was added, and the mixture was incubated for 30 minutes. BOCILLIN™ FL fluorescence polarization was measured at (495nm excitation and 545nm emission) in a SpectraMax® M5 multimode plate reader (Molecular Devices®, San Jose, CA). All assays were repeated at least 8 times, averaged, and values falling outside of 2 standard deviations were considered outliers. Resulting data was plotted as percentage BOCILLIN™ FL binding inhibition=(T/U)×100; T=FL polarization of ((PBP4+BOCILLIN™ FL)−(PBP4+BOCILLIN™ FL+inhibitor compound)), U=FL polarization of ((PBP4+BOCILLIN™ FL)−(BOCILLIN™ FL)). Second, gel electrophoresis and fluorescence detection were used to measure BOCILLIN™ FL labeling of PBP4 treated with the known PBP4 inhibitor cefoxitin (positive control), kanamycin (negative control) or 9314848 (test compound). Briefly, 1 μM of recombinant PBP4 was mixed with 0, 50, 500, 2000, or 5000 μM 9314848 or control antibiotic in 50 mM phosphate buffer (pH 7.4) and incubated at 37° C. for 30 minutes. Next 40 μM of BOCILLIN™ FL was added to the reaction mixture and incubated for an additional 30 minutes at 37° C. Reactions were stopped by adding 5×SDS-PAGE gel loading dye, heated at 100° C. for 3 minutes and separated by electrophoresis in 12% SDS-PAGE (2 h, 120 Volts). BOCILLIN™ FL labeled PBP4 was imaged at λ=365 nm using a BioRad© Gel Doc EZ™ Imaging system and the gel was then subsequently stained with Bio-safe Coomassie Brilliant Blue stain (BioRad©, Hercules, CA, USA) to measure the amount of protein present in each reaction condition and analyzed using NIH-ImageJ software. The percent BOCILLIN™ FL binding was calculated by first normalizing the protein present in each reaction condition to that of untreated control and subsequently applying each reaction's protein normalization factor to each reaction's fluorescent signal. The percentage BOCILLIN™ FL binding inhibition was then calculated as the normalized band intensity of antibiotic/compound treated sample as compared to control sample (PBP4+BOCILLIN™ FL in the absence of compound).
# To more directly evaluate whether 9314848 is likely to affect PBP4 function, the compound's ability to bind recombinant PBP4 was measured using BOCILLIN™ FL fluorescence polarization displacement assays. The premise for the assay is that the fluorescence polarization of the fluorescently labeled β-lactam, penicillin V (BOCILLIN™ FL), will increase upon binding to its cognate target (i.e., PBP4). Further, compounds that bind PBP4 and inhibit its function would impede BOCILLIN™ FL binding thereby allowing assessment of the protein binding affinity of 9314848 using a simple fluorescence reduction assay.
compound,measurement,setting,value
O=C(Nc1ccc2[nH]c(-c3cccs3)nc2c1)c1ccco1 [Compound 1 (7729837)],"Cmpd (putative PBP4 inhibitor) MIC, Alone",[1],200 µM
same,Fold-decrease in ceftobiprole resistance in combination,[1],2
same,"Cmpd concentration, Combination",[1]; with ceftobiprole,50 µM
same,"BPR (ceftobiprole) MIC, Combination",[1]; with putative PBP4 inhibitor,64 µg/mL
same,pbp4 expression (qRT-PCR),[2],significantly reduced
same,pbp4 expression (qRT-PCR),[3],slightly reduced
same,"Percentage Bocillin Displacement (%), PBP4 binding",[4],25.66% and 25.66 ± 18.09%
